Common to all, as to settings: Example 13 oxidoreductase panel (FIG. 7)
The target in experiment [1] is T1, HMG CoA reductase (HMGCoAR) (UniProt P04035).
T1 sequence (P04035 1-888): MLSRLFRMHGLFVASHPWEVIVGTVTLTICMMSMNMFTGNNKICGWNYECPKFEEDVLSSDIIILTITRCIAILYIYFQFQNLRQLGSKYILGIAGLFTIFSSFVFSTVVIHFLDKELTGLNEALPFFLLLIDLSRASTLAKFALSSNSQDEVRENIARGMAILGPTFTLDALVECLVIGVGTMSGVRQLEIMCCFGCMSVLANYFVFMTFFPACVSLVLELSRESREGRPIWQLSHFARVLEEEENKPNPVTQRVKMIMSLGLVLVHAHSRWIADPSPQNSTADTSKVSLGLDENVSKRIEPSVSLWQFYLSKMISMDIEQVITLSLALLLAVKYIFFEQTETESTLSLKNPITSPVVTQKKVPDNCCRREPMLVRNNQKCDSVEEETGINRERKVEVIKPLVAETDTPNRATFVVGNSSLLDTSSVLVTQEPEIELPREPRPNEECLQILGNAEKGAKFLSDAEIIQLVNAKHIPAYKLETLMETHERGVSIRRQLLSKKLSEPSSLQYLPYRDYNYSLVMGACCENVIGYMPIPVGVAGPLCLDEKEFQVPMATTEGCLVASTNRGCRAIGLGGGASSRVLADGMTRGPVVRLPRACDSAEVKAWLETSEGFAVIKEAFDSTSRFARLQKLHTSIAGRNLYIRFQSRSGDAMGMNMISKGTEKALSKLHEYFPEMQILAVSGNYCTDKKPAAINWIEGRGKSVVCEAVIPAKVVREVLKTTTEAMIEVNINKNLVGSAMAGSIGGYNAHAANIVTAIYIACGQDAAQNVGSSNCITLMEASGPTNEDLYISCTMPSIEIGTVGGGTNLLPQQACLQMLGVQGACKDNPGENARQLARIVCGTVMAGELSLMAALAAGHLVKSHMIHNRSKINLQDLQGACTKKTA
Description: HMGCoAR kinetic assay, spectrophotometric oxidation of NADPH at 340 nm. The experiment is classed as biochemical. The procedure: For HMGCoAR analysis, the compounds were screened using a kinetic protocol that spectrophotometrically evaluates oxidation of NADPH.
Stock solutions of each of the reagents were prepared in the following concentrations. Dilutions of the stock solutions were prepared prior to running the assay in the concentrations indicated below. The enzyme was diluted in 1 M NaCl. To prepare the dilution buffer, 10 μl of HMGCoAR (1 mg/ml) was mixed with 133 μl of 3 M NaCl solution and 257 μl of 25 mM KH2PO4 buffer (pH 7.5; containing 50 mM NaCl, […] EDTA (ethylenediaminetetraacetic acid), and 5 mM DTT (dithiothreitol).
The HMGCoAR reaction was monitored at 340 nm prior to and after addition of the inhibitor to detect background reaction with the inhibitor. Solutions of 100 μM of the inhibitors in DMSO were prepared to provide a final DMSO concentration of 2% of the total assay volume. These solutions were incubated for 6 minutes at 25° C. in a 994 μl of a solution containing 25 mM KH2PO4, pH 7.5, 160 μM HMGCoA, 13 μM NADPH, 50 mM NaCl, 1 mM EDTA, and 5 mM DTT. The reaction was then initiated with 5 μl of HMGCoAR enzyme (1:40 dilution of 0.65 mg/ml). After the enzyme was added, the solution was mixed for 20 seconds, and the reaction was run for 10 minutes. After a 50 second lag, the samples were read in a Cary spectrophotometer at 340 nm. Reading of the samples was continued until 300 seconds. […]

Experiment [2] concerns the target Human Aldose Reductase (AR) (Homo sapiens, UniProt P15121). Description: AR kinetic assay, spectrophotometric measurement of enzyme activity at 340 nm. The experiment is classed as biochemical. As to the method:
For AR analysis, the compounds were screened using a kinetic protocol that spectrophotometrically measures enzyme activity.
(§1) Stock solutions of each of the reagents were prepared in the following concentrations. Dilutions of the stock solutions were prepared prior to running the assay in the concentrations indicated below.
The AR reaction was monitored at 340 nm prior to and after addition of the inhibitor to detect background reaction with the inhibitor. Solutions of 100 μl of the inhibitors in DMSO were prepared to provide a final DMSO concentration of 5% of the total assay volume. These solutions were incubated for 5 minutes at 25° C. in a 990 μl of a solution containing 100 mM potassium phosphate, pH 7.5, 0.3 M ammonium sulfate, 1.0 mM ethylenediaminetetraacetic acid (EDTA), 3.8 μM B-Nicotinamide adenine dinucleotide phosphate (NADPH), 171 μM DL-glyceraldehyde and 0.1 mM DL-dithiothreitol. The reaction was then initiated with 10 μl of Human Aldose Reductase (1:5 dilution of 0.55 mg/ml). After the enzyme was added, the solution was mixed for 20 seconds, and the reaction was run for 10 minutes. After a 50 second lag, the samples were read in a Cary spectrophotometer at 340 nm. Reading of the samples was continued until 300 seconds. The final DMSO concentration in the cuvette was 5%. […]

Experiment [3] concerns the target T2, lactate dehydrogenase (LDH) (Oryctolagus cuniculus, UniProt P13491).
T2 construct: 10 μl of LDH from Rabbit Muscle; from tissue; host or cells: rabbit muscle
In words: LDH kinetic assay, spectrophotometric oxidation of NADH at 340 nm. It is filed as biochemical, Rabbit Muscle. The procedure:
For LDH analysis, the compounds were screened using a kinetic protocol that spectrophotometrically evaluates oxidation of NADH.
as §1
The LDH reaction was monitored at 340 nm prior to and after addition of the inhibitor to detect background reaction with the inhibitor. Solutions of 100 μl of the inhibitors in DMSO were prepared to provide a final DMSO concentration of 5% of the total assay volume. These solutions were incubated for 6 minutes at 25° C. in a 990 μl of a solution containing 0.1 M HEPES, pH 7.4, 10 μM NADH, and 2.5 mM of pyruvate. The reaction was then initiated with 10 μl of LDH from Rabbit Muscle (0.5 μg/ml; 1:2000 dilution of 1.0 mg/ml). After the enzyme was added, the solution was mixed for 20 seconds, and the reaction was run for 10 minutes. After a 50 second lag, the samples were read in a Cary spectrophotometer at 340 nm. Reading of the samples was continued until 300 seconds. Cuvette #1 contained the control reaction (no inhibitor), and cuvette #2 contained the positive control reaction in which Cibacron Blue at 10.3 μM was substituted for inhibitor to yield 50 to 70% inhibition. The substrate was kept at a level at least 10 times the Km.

Broadly, the IC50 is the midpoint of a concentration-inhibition curve.

In the case of `O=C(O)c1ccc(-c2ccc(-c3nc4ccccc4[nH]3)o2)cc1` [compound 6b, 4-[5-(1H-benzoimidazol-2-yl)-furan-2-yl] benzoic acid], the IC50 in experiment [1] came out at 22 µM; in experiment [2], 35 µM. The molecule `O=C(O)c1ccc(-c2ccc(-c3nc4cc([N+](=O)[O-])ccc4[nH]3)o2)cc1` [compound 6d, 4-[5-(5-nitro-1H-benzoimidazol-2-yl)-furan-2-yl]-benzoic acid] displayed an IC50 in experiment [3] of 4.56 µM.

Source of the values: patent US20030104473A1, “Common ligand mimics: benzimidazoles” (priority 2001, published 2003).
